Data from patent US8440837B2, “2-substituted-ethynylthiazole derivatives and uses of same” (H. Lundbeck A/S, priority 2009, dated 2013).

Assays:
[1] = system: working memory processes (cognition); assay: Novel object recognition (NOR) test; assay type: in vivo, rats
Method: Cognition can be assessed by the novel object recognition (NOR). NOR can be used to access cognitive performance with respect to processes of working memory, such as recognition, interpretation and appropriate response. The NOR test was performed using the compound of Example 1 and reference compound in vehicle of 20% β-cyclodextrin (βCD) in dH2O. Example 1 (at 3.0 mg/kg, ip in rats) has activity as measured in the NOR test. Along with Example 1, Examples 2, 12 and 35 (at 1.0 mg/kg, po in rats) have activity as measured in the NOR test.

[2] = molecular target: human metabotropic glutamate receptor 5 (hmGluR5) (UniProt P31424); assay: Calcium mobilization (FLIPR) assay, positive allosteric modulation of the EC20 glutamate response; assay type: cell-based; settings: HEK 293 cells; for maximum modulation (Emax): EC20 glutamate response; for EC50: increase in EC20 glutamate response
Method: (§1) The cDNA for human metabotropic glutamate receptor 5 (hmGluR5) was a generous gift from S. Nakanishi (Kyoto University, Kyoto, Japan). The […] was stably expressed in a HEK 293 cell line and grown in Dulbecco's Modified Eagle Medium (DMEM) (Invitrogen, Carlsbad, Calif.) with supplements (10% bovine calf serum, 4 mM glutamine, 100 units/mL penicillin, 100 μg/mL streptomycin and […]) at 37° C., 5% CO2. Twenty-four hours prior to assay, cells were seeded into 384-well black wall microtiter plates coated with poly-D-lysine. Just prior to assay, media was aspirated and cells dye-loaded (25 μL/well) with 3 μM Fluo-4/0.01% pluronic acid in assay buffer (Hank's Balanced Saline Solution (HBSS)): 150 mM NaCl, 5 mM KCl, 1 mM CaCl2, 1 mM MgCl2, plus 20 mM N-2-Hydroxyethylpiperazine-N′-2-ethanesulfonic acid (HEPES), pH 7.4, 0.1% bovine serum albumin (BSA) and 2.5 mM probenicid) for 1 hour in 5% CO2 at 37° C. After excess dye was discarded, cells were washed in assay buffer and layered with a final volume equal to 30 μL/well. Basal fluorescence is monitored in a fluorometric imaging plate reader (FLIPR) (Molecular Devices, Sunnyvale, Calif.) with an excitation wavelength of 488 nm and an emission range of 500 to 560 nm. Laser excitation energy was adjusted so that basal fluorescence readings were approximately 10,000 relative fluorescent units. Cells were stimulated with an EC20 or an EC80 concentration of glutamate in the presence of a compound to be tested, both diluted in assay buffer, and relative fluorescent units were measured at defined intervals (exposure=0.6 sec) over a 3 min period at room temperature. Basal readings derived from negative controls were subtracted from all samples. Maximum change in fluorescence was calculated for each well. Concentration-response curves derived from the maximum change in fluorescence were analyzed by nonlinear regression (Hill equation).
A silent allosteric modulator (SAM) can be identified by using a combination of both the calcium mobilization assay data and the radioligand binding data. As used herein, the term “silent allosteric modulator” refers to a ligand that binds to an allosteric site of the receptor but has no measurable intrinsic efficacy.

mGluR5 = mGluR5 (Homo sapiens, UniProt P41594); assay: [3H] MPEP radioligand filtration binding assay on membrane homogenates; settings: 5 nM [3H] MPEP, Cheng-Prusoff from IC50
Method: Binding assays were performed as described in [J. A. O'Brien et al. Mol. Pharmacol., 2003, 64, 731-740] with slight modifications. Briefly, after thawing, the membrane homogenates were resuspended in 50 mM Tris-HCl, 0.9% NaCl binding buffer at pH 7.4 to a final assay concentration of 20 μg protein/well for [^3H] […] ([^3H] MPEP) (American Radiolabeled Chemicals, Inc., St. Louis, Mo.) filtration binding. Incubations included 5 nM [^3H] MPEP, membranes and either buffer or varying concentrations of compound. Samples were incubated for 60 min at room temperature with shaking. Non-specific binding was defined with 10 μM MPEP. After incubation, samples were filtered over a GF/C filter (presoaked in 0.25% polyethyleneimine (PEI)) and then washed 4 times using a Tomtec® Harvester 96® Mach III cell harvester (Tomtec, Hamden, Conn.) with 0.5 mL ice-cold 50 mM Tris-HCl (pH 7.4).
IC50 values were derived from the inhibition curve and Ki values were calculated according to the Cheng and Prusoff equation of Ki=IC50/(1+[L]/Kd) described in [Y. Cheng and W. H. Prusoff Biochem. Pharmacol. 1973, 22, 3099-3108] where [L] is the concentration of radioligand and Kd is its dissociation constant at the receptor, derived from the saturation isotherm.

[3] = molecular target: human metabotropic glutamate receptor 5 (hmGluR5); assay: Calcium mobilization (FLIPR) assay, negative allosteric modulation of the EC80 glutamate response; assay type: cell-based; settings: HEK 293 cells, inhibition of EC80 glutamate response
Method: as §1
A negative allosteric modulator (NAM) can be identified from these concentration-response curves if a compound produces a concentration dependent inhibition of the EC80 glutamate response.

mGluR5, sequence (P41594 21-1212): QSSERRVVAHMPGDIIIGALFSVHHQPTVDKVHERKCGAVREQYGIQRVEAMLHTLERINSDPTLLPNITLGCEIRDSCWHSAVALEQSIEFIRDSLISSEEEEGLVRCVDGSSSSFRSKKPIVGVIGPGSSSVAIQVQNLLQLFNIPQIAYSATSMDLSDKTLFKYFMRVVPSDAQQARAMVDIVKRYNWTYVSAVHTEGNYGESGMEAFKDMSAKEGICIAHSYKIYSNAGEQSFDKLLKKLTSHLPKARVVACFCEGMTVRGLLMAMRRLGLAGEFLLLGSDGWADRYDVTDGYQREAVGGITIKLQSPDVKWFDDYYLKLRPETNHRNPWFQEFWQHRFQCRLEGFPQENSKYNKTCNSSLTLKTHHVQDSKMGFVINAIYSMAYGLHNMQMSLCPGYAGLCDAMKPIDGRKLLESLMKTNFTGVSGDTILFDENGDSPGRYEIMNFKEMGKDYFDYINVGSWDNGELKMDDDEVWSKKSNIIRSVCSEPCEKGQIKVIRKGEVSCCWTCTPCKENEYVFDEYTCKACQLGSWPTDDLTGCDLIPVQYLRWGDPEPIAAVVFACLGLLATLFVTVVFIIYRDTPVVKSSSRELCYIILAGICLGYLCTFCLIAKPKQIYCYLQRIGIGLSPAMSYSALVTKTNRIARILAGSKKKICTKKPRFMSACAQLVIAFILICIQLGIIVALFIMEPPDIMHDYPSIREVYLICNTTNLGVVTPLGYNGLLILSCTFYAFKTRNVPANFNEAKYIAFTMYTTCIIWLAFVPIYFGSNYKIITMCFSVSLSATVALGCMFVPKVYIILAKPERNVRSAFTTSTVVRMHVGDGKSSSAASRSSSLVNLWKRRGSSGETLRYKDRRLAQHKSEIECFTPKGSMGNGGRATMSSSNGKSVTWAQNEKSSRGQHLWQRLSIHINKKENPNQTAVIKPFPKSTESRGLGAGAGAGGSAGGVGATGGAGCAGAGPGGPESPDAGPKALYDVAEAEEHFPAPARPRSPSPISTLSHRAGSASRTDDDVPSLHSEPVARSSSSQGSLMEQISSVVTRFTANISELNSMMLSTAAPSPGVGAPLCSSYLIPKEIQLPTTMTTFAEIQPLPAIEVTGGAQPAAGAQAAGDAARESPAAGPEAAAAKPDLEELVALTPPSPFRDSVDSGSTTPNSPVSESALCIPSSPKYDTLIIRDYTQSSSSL

SMILES	activity in the NOR test ([1]; 1.0 mg/kg, po in rats, FIG. 2)	maximum modulation (Emax) [2]	EC50 [2]	Ki (mGluR5)	activity in the NOR test ([1]; 3.0 mg/kg, ip in rats, FIG. 1)	IC50 [3]
O=C(c1cnc(C#Cc2ccccc2)s1)N1CCC(O)CC1 [Example 12, (4-Hydroxy-piperidin-1-yl)-(2-phenylethynyl-thiazol-5-yl)-methanone]	have activity	170%	280 nM	7170 nM		
O=C(c1cnc(C#Cc2cccc(F)c2)s1)N1CCOCC1 [Example 22, [2-(3-Fluoro-phenylethynyl)-thiazol-5-yl]-morpholin-4-yl-methanone]				300 nM		
O=C(c1cnc(C#Cc2ccccc2)s1)N1CCCCC1 [Example 1, (2-Phenylethynyl-thiazol-5-yl)-piperidin-1-yl-methanone]	have activity	210%	3.6 nM	139 nM	has activity	
O=C(c1cnc(C#Cc2ccccc2)s1)N1CCOCC1 [Example 7, Morpholin-4-yl-(2-phenylethynyl-thiazol-5-yl)-methanone]				860 nM		
O=C(c1cnc(C#Cc2cccc(Cl)c2)s1)N1CCCCC1 [Example 35, [2-(3-Chloro-phenylethynyl)-thiazol-5-yl]-piperidin-1-yl-methanone]	have activity					
CC(c1cnc(C#Cc2ccccc2)s1)N1CCCCC1 (stereo not drawn) [Example 231, 1-[1-(2-Phenylethynyl-thiazol-5-yl)-ethyl]-piperidine]						700 nM
O=C(c1cnc(C#Cc2ccccc2)s1)N1CCC(F)CC1 [Example 2, (4-Fluoro-piperidin-1-yl)-(2-phenylethynyl-thiazol-5-yl)-methanone]	have activity	130%	7.9 nM	192 nM		
O=C(c1cnc(C#Cc2ccccn2)s1)N1CCCC1 [Example 198, (2-Pyridin-2-ylethynyl-thiazol-5-yl)-pyrrolidin-1-yl-methanone]						20 nM
CC1CCN(C(=O)c2cnc(C#Cc3ccccc3)s2)CC1 [Example 11, (4-Methyl-piperidin-1-yl)-(2-phenylethynyl-thiazol-5-yl)-methanone]		150%	3.5 nM	135 nM		
